One series concerns ApoB100 mice. In words: Hypocholesterolemic effect, oral 28 days, endogenous hyperlipidemia model. The format is in vivo. The method, then:
All the animals included for the experimental process were 12-week old female mice. The experiments were conducted strictly following the Guidance on the Operation of Animals (Scientific Procedures, Act. 1986). The animals had their respective quarantine period and were treated with maximum precaution to minimize possible contaminations for inoculations and handling.
The control group received this same vehicle. Before starting the treatments and at 7, 21 and 28 days of starting them, retro-orbital blood extractions after fasting for 16 hours were carried out. The plasma was obtained from said blood, in which the total cholesterol (TC), free cholesterol (FC), cholesterol (EC), HDL-c, LDL-c, VLDL-c and apoB100 levels were evaluated by enzymatic and spectrophotometric techniques. In order to check if the effect at the lipid level involved an alteration of the oxidative stress, the redox state in the plasmas obtained was furthermore evaluated by means of the TEAC (Trolox Antioxidant Capacity Assay) technique. This technique determines the antioxidant capacity in vitro, giving an idea of the redox state of the sample analyzed by means of the absorbance capacity by electron transfer. The different components of the reaction, myoglobin, ABTS (2,2-azino-bis-(3-ethylbenzthiazoline-sulfonic acid), […] H2O2 were added to the plasmas diluted 1/10 in PBS (10 μL) in a 96-well plate. After 3 minutes of incubation, the absorbance was measured at 405 nm (with a reference of 600 nm).

Another series relates to zebrafish larvae. In words: Acute toxicity assay in zebrafish larvae (24 hours). The settings on record: for Mortality (dead larvae/total): 1 day. Format: in vivo, Danio rerio. How it is done: To evaluate the biosafety of compound NST0037, its toxicological effects on the zebrafish larvae model were analyzed by means of determining the safety parameters of the OECD C15 protocol.
The fertilized eggs were obtained by natural mating of the zebrafish (Danio rerio, AB strain). A total of 8-10 pairs were used for each cross and a total of 200-250 eggs were generated on average per pair. The eggs were collected immediately after spawning and were washed with dilution water (CaCl2.2H2O2 0.29 g/L, MgSO4.7H2O2 0.12 g/L, NaHCO3 0.065 g/L, KCl 0.006 g/L), the pH being adjusted to 7.8±0.2, in accordance with EC Regulation 440/2008, method C.1, and were deposited in a Petri dish.
The embryos were developed normally until 96 hours post-fertilization in their growth medium. […] […]. Each experiment was performed in triplicate.
The studies were conducted for 24 hours of treatment, thus performing an acute toxicity assay. […].
After the time of exposure of the substances under study, the record of the mortality of the larvae was determined. […].
[…]. The percentage of healthy larvae was defined as the number of live larvae without symptoms of external physiopathological anomalies (morphological and/or behavioral), the latter being a parameter determining the biosafety of a substance under study and is complementary to the survival rates and to LD50. […].
The anomalies recorded in the study are described below: • Thrombosis in the yolk sac: it is a clot inside a blood vessel, in this case of any vessel irrigating the yolk. • Cardiac thrombosis: occurs in a cardiac vessel. • Cardiac edema (or hydrops): accumulation of fluid in the intercellular tissue space and also in the cavities of the organism. In the case of the heart, it causes the accumulation of fluid in the pericardial sac.

Series [1] concerns FVB/NHan mice inoculated with kainate (KA). In words: Antiepileptic effect against kainate in mice (Racine scale). The format is in vivo. The method, then: All the animals included for the experimental process were 12-week old males of the FVB/NHan strain. The experiments were conducted strictly following the Guidance on the Operation of Animals (Scientific Procedures, Act. 1986). The animals had their respective quarantine period and were treated with maximum precaution to minimize possible contaminations for inoculations and handling.
The animals were intraperitoneally inoculated with 25 mg/kg of kainate (KA) dissolved in PBS. Thirteen animals were pre-treated 24 and 0.5 hours before inoculation with KA by means of intraperitoneal injection with PBS (PBS+KA administration regimen) and 6 were pre-treated 24 and 0.5 hours before inoculation with KA by means of intraperitoneal injection with NST0037 at a dose of 50 mg/kg (NST0037+KA administration regimen). After the inoculation, the animals were individually housed in trays to monitor them. The maximum epilepsy level of the animals was recorded during the observation according to the Racine scale every ten minutes and for at least 120 minutes post-inoculation (m.p.i.).

For series [2], the system named is C57BL6 mice treated with Triton 1339 (Tyloxapol). In words: Hypocholesterolemic effect in induced hyperlipidemia model (Triton 1339). The format is in vivo. The settings on record: 50 mg/kg i.p. The method, then: In order to conduct the experiment on the fasting animals, blood was extracted by ocular puncture. The plasma was obtained from said blood, in which plasma total cholesterol levels and levels of its fractions were determined prior to administration of the substances under study. […] After thirty minutes, the animals were intraperitoneally inoculated with 50 mg/kg of each of the test compounds. Seven animals were treated with the vehicle alone and were considered the control group. […] Finally, a third group of seven mice received 50 mg/Kg of NST0037. Twenty-four hours after the treatments, blood was again extracted from the fasting animals and the plasma was obtained from said blood.

As to `CCC(CC)C(=O)O[C@H]1C[C@@H](C)C=C2C=C[C@H](C)[C@H](CC[C@@H]3C[C@@H](O)CC(=O)O3)[C@H]21` [NST0037, (1S,2S,6R,8S,8aR)-1,2,6,7,8,8a-hexahydro-3,7-dimethyl-8-[2-[(2R,4R)-tetrahydro-4-hydroxy-6-oxo-2H-pyran-2-yl]ethyl]-1-naphthalenyl-2-ethyl-butyrate], the “FC and EC levels” value in the series with ApoB100 mice (50 mg/kg oral, 7, 21 and 28 days) is “reduction of the FC and EC levels”. For the same molecule, in the series with ApoB100 mice (50 mg/kg oral, 28 days), the HDL result was “reduction of VLDL and HDL”; the LDL entry is reported as “smaller increase of LDL”; the VLDL result was “reduction of VLDL”; the “apolipoprotein B (apoB) levels” value is “visibly reduced”. The “redox state of the plasmas (TEAC)” value with ApoB100 mice (50 mg/kg oral, 28 days) was “decrease the redox state”. Also, the “plasma total cholesterol levels” value in the series on ApoB100 mice (50 mg/kg oral, 28 days, female apoB100 mice) is “significantly reducing the plasma total cholesterol levels”. For the same molecule, in the series with zebrafish larvae (Dose 10 mg/Kg), the “Mortality (dead larvae/total)” value was 0/30. Also, the “Mortality (dead larvae/total)” value in the series with zebrafish larvae (Dose 30 mg/Kg) is 0/30. For the same molecule, the “Mortality (dead larvae/total)” value in the series with zebrafish larvae (Dose 100 mg/Kg) was 0/30. In addition, the “Mortality (dead larvae/total)” value in the series on zebrafish larvae (Dose 300 mg/Kg) was 0/30. In addition, the “Mortality (dead larvae/total)” value with zebrafish larvae (Dose 1000 mg/Kg) is on record as 0/30. Moreover, in the series on zebrafish larvae (highest study dose (1000 mg/Kg), 24 hours), the “percentage of healthy larvae” value is listed as 67.9±3.3%. Moreover, the “epileptogenic symptoms from 100 m.p.i.” value in series [1] (NST0037+KA regimen) was “caused the disappearance of the epileptogenic symptoms”. For the same molecule, the “epilepsy level on the Racine scale” value in series [1] (NST0037+KA, 120 minutes observation) was under 3. For the same molecule, in series [2] (24 hours after Triton 1339), the HDL-c levels result was “not being changed”, the LDL-c levels entry is listed as “reduction being statistically significant”, the VLDL-c levels entry is “Only simvastatin reduced” and the “esterified cholesterol (EC) levels” value is “reduced”. In series [2] (24 hours after Triton 1339), the “free cholesterol (FC) levels” value is given as “reduced the levels of this fraction in a similar manner”. In series [2] (24 hours after Triton 1339 500 mg/kg), the total cholesterol increase result was “hypocholesterolemic effect, being statistically significant”.

These data come from patent publication US20140309295A1, “ANTIEPILEPTIC, HYPOCHOLESTEROLEMIC AND NEUROPROTECTIVE COMPOUND” (NEURON BIOPHARMA, S.A., priority 2009, published 2014).
